We go through one molecule from PMC4789591, “Involvement of Daphnia pulicaria Sir2 in regulating stress response and lifespan” (Aging (Albany NY), 2016).

The target in the assay is T1, Daphnia Sir2 (Daphnia pulicaria, UniProt A0A0U3BSS1).
T1 construct: full-length ORF, N-terminal FLAG tag, pcDNA3.1-, in vitro translated in rabbit reticulocyte lysate (TNT T7), not purified; calculated mass 67 kD
T1 sequence (A0A0U3BSS1 1-601): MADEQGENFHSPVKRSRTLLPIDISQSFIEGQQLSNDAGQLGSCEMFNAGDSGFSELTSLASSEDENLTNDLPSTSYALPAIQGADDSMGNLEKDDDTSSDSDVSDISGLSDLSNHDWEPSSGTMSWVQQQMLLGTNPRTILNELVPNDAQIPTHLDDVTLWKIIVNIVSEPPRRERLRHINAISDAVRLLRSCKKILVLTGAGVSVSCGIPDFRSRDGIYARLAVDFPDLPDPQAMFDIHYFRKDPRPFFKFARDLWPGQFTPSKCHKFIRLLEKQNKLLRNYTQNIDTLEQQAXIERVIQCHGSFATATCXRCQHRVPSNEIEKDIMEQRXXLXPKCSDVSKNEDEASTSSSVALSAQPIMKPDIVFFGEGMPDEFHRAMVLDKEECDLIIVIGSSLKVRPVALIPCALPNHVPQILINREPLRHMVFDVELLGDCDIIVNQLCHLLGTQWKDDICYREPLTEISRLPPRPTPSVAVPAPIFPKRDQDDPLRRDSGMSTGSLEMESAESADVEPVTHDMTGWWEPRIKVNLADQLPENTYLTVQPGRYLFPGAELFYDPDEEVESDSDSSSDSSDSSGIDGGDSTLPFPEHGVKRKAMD
The assay is described as follows: fluorogenic acetylated-peptide deacetylase assay (Abcam ab156065). Type of assay: biochemical. The following applies: in vitro translated protein in reticulocyte lysate, lysate background subtracted; inhibitor concentration not told for this test; peptidase-coupled.

As to `NC(=O)C1CCCc2c1[nH]c1ccc(Cl)cc21` (stereo not shown) [Ex527], the “inhibition of deacetylase activity” value is on record as “human recombinant Sirt1 as well as Daphnia Sir2 activity is significantly diminished by the inhibitor”.
